Values joined by “and” are separate entries in the source; they are usually repeats but may differ in a detail not shown here. Equal entries are not always repeated.
Tests used:
[1] = system: MDA-MB-231; test: drug sensitivity score (DSS), CellTiter-Glo (DSS (AUC-based score)); higher = stronger drug effect (viability inhibition or cytotoxicity); extreme values may be limits of the assay; conditions: incubation time: 72 h
Method in brief: (§1)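 A drug sensitivity score was derived from the area under each fitted dose-response curve. Breast cancer cells (20 µl suspension) were seeded onto compound in 384-well plates, using 5 concentrations 10-fold apart over a compound-specific 10,000-fold range, and incubated 72 h. Readouts were CellTox Green fluorescence and then CellTiter-Glo luminescence, with every plate normalised to 0.1 % DMSO and a positive kill control.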

[2] = system: Hs578T; test: as above; conditions: incubation time: 72 h
Method in brief: as §1

[3] = system: HCC1599; test: as above; conditions: incubation time: 72 h
Method in brief: as §1

[4] = system: CAL-85-1; test: as above; conditions: incubation time: 72 h
Method in brief: as §1

[5] = system: SK-BR-3; test: as above; conditions: incubation time: 72 h
Method in brief: as §1

[6] = system: BT-474; test: as above; conditions: incubation time: 72 h
Method in brief: as §1

[7] = system: HDQ-P1; test: as above; conditions: incubation time: 72 h
Method in brief: as §1

[8] = system: MCF-10A; test: as above; conditions: incubation time: 72 h
Method in brief: as §1

[9] = system: CAL-148; test: as above; conditions: incubation time: 72 h
Method in brief: as §1

[10] = system: MDA-MB-453; test: as above; conditions: incubation time: 72 h
Method in brief: as §1

[11] = system: HCC1143; test: as above; conditions: incubation time: 72 h
Method in brief: as §1

[12] = system: MDA-MB-436; test: as above; conditions: incubation time: 72 h
Method in brief: as §1

[13] = system: MDA-MB-468; test: as above; conditions: incubation time: 72 h
Method in brief: as §1

[14] = system: BT-549; test: as above; conditions: incubation time: 72 h
Method in brief: as §1

[15] = system: DU-4475; test: as above; conditions: incubation time: 72 h
Method in brief: as §1

[16] = system: MFM-223; test: as above; conditions: incubation time: 72 h
Method in brief: as §1

[17] = system: CAL-51; test: as above; conditions: incubation time: 72 h
Method in brief: as §1

[18] = system: BT-474; conditions: 72 h
Method in brief: (§2)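 Per-plate normalisation used 0.1 % DMSO and a positive kill control. Breast cancer cell lines (20 µl suspension) were seeded into 384-well plates containing compound at 5 concentrations in 10-fold steps across a compound-specific 10,000-fold range, incubated for 72 h, and read first for CellTox Green fluorescence (485/520 nm), then for CellTiter-Glo luminescence. EC50 was fitted from the dose-response curves and censored at the top concentration.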

[19] = system: MDA-MB-436; conditions: 72 h
Method in brief: as §2

[20] = system: HCC1143; test: normalised viability (% of control), CellTiter-Blue; higher = more viable cells (about 100 = DMSO control); conditions: incubation time: 72 h
Method in brief: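 Breast cancer cell lines in 20 µl suspension were seeded onto 384-well plates pre-loaded with compound dissolved in 5 µl medium, then incubated 72 h. CellTiter-Blue reagent (2.5 µl) was added for 2 h at 37 °C and fluorescence read at 560/590 nm. Each plate was normalised to vehicle (100) and a positive kill control (0), with Z'-factor quality control. The value is normalised viability at one listed concentration of the series.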

[21] = system: Hs578T; conditions: 72 h
Method in brief: as §2

[22] = system: BT-549; conditions: 72 h
Method in brief: as §2

[23] = system: MFM-223; conditions: 72 h
Method in brief: as §2

[24] = system: CAL-120; conditions: 72 h
Method in brief: as §2

[25] = system: MDA-MB-468; conditions: 72 h
Method in brief: as §2

COc1nc(N)nc2c1ncn2[C@@H]1O[C@H](CO)[C@@H](O)[C@@H]1O [Nelarabine]
drug sensitivity score [1]: 0
drug sensitivity score [2]: 0
drug sensitivity score [3]: 0
drug sensitivity score [4]: 0
drug sensitivity score [5]: 0
drug sensitivity score [6]: 1.66
drug sensitivity score [7]: 0
drug sensitivity score [8]: 0
drug sensitivity score [9]: 0
drug sensitivity score [10]: 0
drug sensitivity score [11]: 0
drug sensitivity score [12]: 0.149
drug sensitivity score [13]: 0
drug sensitivity score [14]: 0
drug sensitivity score [15]: 0
drug sensitivity score [16]: 0
drug sensitivity score [17]: 0
EC50, CellTiter-Glo [18]: > 10000 nM
EC50, CellTiter-Glo [19]: > 10000 nM

Cc1ccc(Nc2nccc(N(C)c3ccc4c(C)n(C)nc4c3)n2)cc1S(N)(=O)=O [Pazopanib]
drug sensitivity score [1]: 0
drug sensitivity score [2]: 0.162
drug sensitivity score [3]: 0
drug sensitivity score [4]: 0
drug sensitivity score [5]: 0
drug sensitivity score [6]: 0
drug sensitivity score [7]: 0
drug sensitivity score [8]: 0
drug sensitivity score [9]: 0
drug sensitivity score [10]: 0
drug sensitivity score [11]: 0
drug sensitivity score [12]: 0
drug sensitivity score [13]: 0
drug sensitivity score [14]: 2.29
drug sensitivity score [15]: 0
drug sensitivity score [16]: 6.2
drug sensitivity score [17]: 0
normalised viability ([20]; 100 nM): 85.8%
EC50, CellTiter-Glo [21]: > 10000 nM
EC50, CellTiter-Glo [22]: 4180 nM
EC50, CellTiter-Glo [23]: 645 nM

O=C(CCBr)N1CCN(C(=O)CCBr)CC1 [Pipobroman]
drug sensitivity score [1]: 0
drug sensitivity score [2]: 0
drug sensitivity score [3]: 0
drug sensitivity score [4]: 0
drug sensitivity score [5]: 0
drug sensitivity score [6]: 0
drug sensitivity score [7]: 0
drug sensitivity score [8]: 0
drug sensitivity score [9]: 0
drug sensitivity score [10]: 0
drug sensitivity score [11]: 0
drug sensitivity score [12]: 0
drug sensitivity score [13]: 0
drug sensitivity score [14]: 0
drug sensitivity score [15]: 0
drug sensitivity score [16]: 0
drug sensitivity score [17]: 1.64
normalised viability ([20]; 100 nM): 87.8%

c1cc(CN2CCCNCCNCCCNCC2)ccc1CN1CCCNCCNCCCNCC1 [Plerixafor]
drug sensitivity score [1]: 0
drug sensitivity score [2]: 0
drug sensitivity score [3]: 0
drug sensitivity score [4]: 0
drug sensitivity score [5]: 0
drug sensitivity score [6]: 0
drug sensitivity score [7]: 0
drug sensitivity score [8]: 0
drug sensitivity score [9]: 0
drug sensitivity score [10]: 0
drug sensitivity score [11]: 0
drug sensitivity score [12]: 0
drug sensitivity score [13]: 0
drug sensitivity score [14]: 0
drug sensitivity score [15]: 0
drug sensitivity score [16]: 0
drug sensitivity score [17]: 0
normalised viability ([20]; 25 nM): 83.4%

C[C@]12C=CC(=O)C=C1CC[C@@H]1[C@@H]2[C@@H](O)C[C@@]2(C)[C@H]1CC[C@]2(O)C(=O)CO [Prednisolone]
drug sensitivity score [1]: 0
drug sensitivity score [2]: 0
drug sensitivity score [3]: 0
drug sensitivity score [4]: 0
drug sensitivity score [5]: 0
drug sensitivity score [6]: 0
drug sensitivity score [7]: 2.08
drug sensitivity score [8]: 0
drug sensitivity score [9]: 0
drug sensitivity score [10]: 0
drug sensitivity score [11]: 0
drug sensitivity score [12]: 0
drug sensitivity score [13]: 0
drug sensitivity score [14]: 0
drug sensitivity score [15]: 0
drug sensitivity score [16]: 0
drug sensitivity score [17]: 0
normalised viability ([20]; 100 nM): 97.8%
EC50, CellTiter-Glo [24]: 99.1 nM

CC(C)N(CCCNC(=O)Nc1ccc(C(C)(C)C)cc1)C[C@H]1O[C@@H](n2cc(Br)c3c(N)ncnc32)[C@H](O)[C@@H]1O [SGC0946]
drug sensitivity score [1]: 0
drug sensitivity score [2]: 0
drug sensitivity score [3]: 0
drug sensitivity score [4]: 0
drug sensitivity score [5]: 0
drug sensitivity score [6]: 0
drug sensitivity score [7]: 0
drug sensitivity score [8]: 0
drug sensitivity score [9]: 0
drug sensitivity score [10]: 0
drug sensitivity score [11]: 0
drug sensitivity score [12]: 0
drug sensitivity score [13]: 2.46
drug sensitivity score [14]: 0
drug sensitivity score [15]: 0
drug sensitivity score [16]: 0
drug sensitivity score [17]: 0
EC50, CellTiter-Glo [25]: 2470 nM

CNC(=O)c1cc(Oc2ccc(NC(=O)Nc3ccc(Cl)c(C(F)(F)F)c3)cc2)ccn1 [Sorafenib]
drug sensitivity score [1]: 0
drug sensitivity score [2]: 0
drug sensitivity score [3]: 0
drug sensitivity score [4]: 0
drug sensitivity score [5]: 0
drug sensitivity score [6]: 0
drug sensitivity score [7]: 0
drug sensitivity score [8]: 0
drug sensitivity score [9]: 0
drug sensitivity score [10]: 0
drug sensitivity score [11]: 0
drug sensitivity score [12]: 0
drug sensitivity score [13]: 0
drug sensitivity score [14]: 0
drug sensitivity score [15]: 0
drug sensitivity score [16]: 0
drug sensitivity score [17]: 0
normalised viability ([20]; 10 nM): 101% and 80.6%

CCN(CC)CCNC(=O)c1c(C)[nH]c(/C=C2\C(=O)Nc3ccc(F)cc32)c1C [Sunitinib]
drug sensitivity score [1]: 0
drug sensitivity score [2]: 0
drug sensitivity score [3]: 0
drug sensitivity score [4]: 0
drug sensitivity score [5]: 0
drug sensitivity score [6]: 0
drug sensitivity score [7]: 0
drug sensitivity score [8]: 0
drug sensitivity score [9]: 0
drug sensitivity score [10]: 0
drug sensitivity score [11]: 0
drug sensitivity score [12]: 0
drug sensitivity score [13]: 0
drug sensitivity score [14]: 0
drug sensitivity score [15]: 0
drug sensitivity score [16]: 0
drug sensitivity score [17]: 0

— the supplement of paper PMC4862054
